According to US12038377B2, “Devices, compositions and methods for imaging with Raman scattering” (THE TRUSTEES OF COLUMBIA UNIVERSITY IN THE CITY OF NEW YORK, priority 2013, dated 2024):
Counter-ions that a name gives are not always drawn. Values belong to the compound of their own block, whether it stands above or below them. Starred links: 1 amine or outer side, 2 acyl side, 3 side chain; linkers in the order of their positions; H or OH if unused. Positions of bridges follow the written chain, without caps; N, C: chain ends. Non-standard residues stand in square brackets, D forms with d. Residues, ends and D or L forms follow the SMILES beside them. Chains are numbered I, II in the order given. *: point of attachment. Actinocin(9to1) = Cc1c2oc3c(C)ccc(C(=O)[*:1])c3nc-2c(C(=O)[*:2])c(N)c1=O; NMeV = CN[C@H](C(=O)O)C(C)C; Cbz = O=C(OCc1ccccc1)*; Sar = CNCC(=O)O

How the values were obtained:
[1] = tested on: HeLa cells; details: 2 mM methionine competing with 2 mM Hpg, live HeLa cells
Protocol: FIG. 12f illustrates live Hela cells incubated with 2 mM Hpg alone (alkyne-on) and with 2 mM methionine (Control). […] For FIG. 12b, FIG. 12d, and FIG. 12f, alkyne-off and amide images display the same set of cells as the alkyne-on images; lipid images capture the same cells as control images.
Sample preparation for SRS imaging of live cells and organisms. For all SRS imaging experiments of HeLa cells (e.g. FIGS. 12a-12j), cells were first Seeded on coverslips with a density of 1×10^5/mL in petri dishes with 2 mL DMEM culture medium for 20 h at 37° C. and 5% CO2. • 1) EdU experiment, DMEM culture medium was then changed to DMEM medium (FBS-free) for 24 h for cell cycle synchronization. After synchronization, medium was replaced back to DMEM culture medium and EdU (10 mM stock in PBS) was simultaneously added to a concentration of 100 μM for 15 h. • 2) EU experiment, EU (100 mM stock in PBS) was added to the DMEM culture medium directly to a concentration of 2 mM for 7 h. • 3) Hpg experiment, DMEM culture medium was then changed to methionine-deficient culture medium for 1 h, followed by supplying 2 mM Hpg (200 mM stock in PBS) in the medium for 24 h. • 4) Propargylcholine and EdU dual-color experiment, DMEM culture medium was changed to DMEM medium (FBS-free) for synchronization. […]

[2] = tested on: RNA synthesis in HeLa cells; experiment: SRS imaging of EU incorporation (RNA transcription), control with RNA synthesis inhibitor; type: cell-based; details: 200 nM actinomycin D, 2 mM EU, live HeLa cells
Text: Next, we studied RNA transcription and turnover using the alkyne-tagged uridine analogue, 5-ethynyl uridine (EU)8 in Hela cells (e.g. FIG. 12a).

[3] = tested on: DNA synthesis in HeLa cells; experiment: SRS imaging of EdU incorporation during de novo DNA synthesis, control with DNA synthesis inhibitor; type: cell-based; details: 10 mM hydroxyurea, 100 μM EdU, live HeLa cells
[4] = tested on: mouse ear tissue; experiment: SRS imaging of drug delivery into mouse ear tissue
Text: Sample preparation for drug delivery into mouse ear tissues. […] The amide (1655 cm^−1) and lipid (2845 cm^−1) images have been applied with linear spectral unmixing to eliminate cross talk before composition.
FIG. 17a depicts Raman spectra of a drug cream, Lamisil, containing 1% TH and mouse ear skin tissue. FIGS. 17b-17e illustrate SRS imaging of tissue layers from stratum corneum (z=4 μm) to viable epidermis (z=24 μm), sebaceous gland (z=48 μm) and subcutaneous fat (z=88 μm). To facilitate tissue penetration, DMSO solution containing 1% TH was applied onto the ears of an anesthetized live mouse for 30 min and the dissected ears are imaged afterwards. […] The composite images show protein (1655 cm^−1) and lipid (2845 cm^−1) distributions.
FIGS. 18a and 18b show SRS imaging of the viable epidermis layer (z=20 μm) and the sebaceous gland layer (z=40 μm). […] The composite images show both protein (1655 cm^−1) and lipid (2845 cm^−1) distributions.

[5] = tested on: protein synthesis in HeLa cells; experiment: Protein synthesis inhibition in HeLa cells incubated with deuterium-labeled all amino acids (C-D signal); type: cell-based; details: 5 μM anisomycin
Protocol: FIGS. 34a-34i is a set of exemplary images based on SRS imaging of time-dependent de novo protein synthesis and drug-induced protein synthesis inhibition effect in live HeLa cells incubated in deuterium-labeled all amino acid medium. […] As a control, the amide I (1655 cm^−1) signal remains at a steady state over time (5 hrs—FIG. 34d, 12 hrs—FIG. 34e, 20 hrs—FIG. 34f). FIGS. 34g-34i illustrate ratio images between the SRS image at 2133 cm^−1 (newly synthesized proteins) and the SRS image at 1655 cm^−1 (the amide I band from total proteins), representing the relative new protein fraction with subcellular resolution at each time point (5 hrs—FIG. 34g, 12 hrs—FIG. 34h, 20 hrs—FIG. 34i). The bar represents the ratio ranging from low to high.
The effect of protein synthesis inhibition by chemical drugs can be further tested to validate that the detected C-D signal indeed derives from nascent proteins. […] (See, e.g., FIG. 34k). […] Thus, the detected C-D SRS signal (e.g., FIGS. 34a-34c) can originate from deuterium-labeled nascent proteins, which can vanish upon adding the protein synthesis inhibitor.

[6] = tested on: HeLa cells; experiment: Alkyne-D-glucose uptake and competition in live HeLa cells (SRS); type: cell-based
[7] = tested on: hippocampal neuronal cultures; experiment: Pulse-chase imaging of proteome turnover in hippocampal neuronal cultures under proteasomal stress; type: cell-based
Protocol: Regular Medium of D12 hippocampal neuronal cultures was replaced by methionine-deficient medium containing 1 mM L-Homopropargylglycine (e.g., HPG, C10186, Invitrogen) for 12 h. The medium was then exchanged to fresh methionine-deficient medium containing 1 mM AHA with or without 10 μM MG132 (e.g., M7449 SIGMA) for another 10 h. Cells were fixed with 4% PFA for 20 min, permeabilized with 0.5% Triton for 15 min. The immuno-staining procedures were the same as described above. Then 1.25 μM MARS2228-azide with Click-iT® Cell Reaction Buffer was added to cells/slices to react with HPG for 20 min. After washing with PBS, 4 μM Alexa 647-alkyne with Click-iT® Cell Reaction Buffer was added to react with AHA for 20 min. Cells were washed with PBS before imaging.
6 technical replicates of 8-colour images were acquired from 3 independent neuronal co-cultures (e.g., the same condition as described above for FIGS. 48d1-48d5) for statistical presentation. […] Cross-checking 8-colour staining, the percentages of astrocytes with aggregations (e.g., the number of astrocytes with aggregations divided by the total number of astrocytes) and the percentages of neurons with aggregations (e.g., the number of neurons with aggregations divided by the total number of neurons) were calculated for each image sets. […]

SMILES: CSCC[C@H](N)C(=O)O [methionine, L-methionine]
Hpg signal (newly synthesized proteins) [1]: causes the signal to disappear

SMILES: Cc1c2oc3c(C)ccc(C(=O)N[C@@H]4C(=O)N[C@H](C(C)C)C(=O)N5CCC[C@H]5C(=O)N(C)CC(=O)N(C)[C@@H](C(C)C)C(=O)O[C@@H]4C)c3nc-2c(C(=O)N[C@@H]2C(=O)N[C@H](C(C)C)C(=O)N3CCC[C@H]3C(=O)N(C)CC(=O)N(C)[C@@H](C(C)C)C(=O)O[C@@H]2C)c(N)c1=O [actinomycin D] (I: T[dV]P[Sar][NMeV] / II: T[dV]P[Sar][NMeV]; ester I:1-I:C, II:1-II:C; linker I:N-II:N via Actinocin(9to1))
EU alkyne-on signal (newly synthesized RNA) [2]: nearly disappears

SMILES: NC(=O)NO [hydroxyurea]
EdU signal (newly synthesized DNA) [3]: No EdU signal shows up

depth of drug delivery imaged inside mouse ear tissue ([4]; internal alkyne at 2230 cm−1, 1% TH applied 30 min): about 100 μm
SMILES: CN(C/C=C/C#CC(C)(C)C)Cc1cccc2ccccc12 [terbinafine hydrochloride]
tissue penetration pathway ([4]; 1% TH in DMSO, mouse ear, 30 min): penetrates into tissues through the lipid phase

SMILES: COc1ccc(C[C@H]2NC[C@H](O)[C@H]2OC(C)=O)cc1 [anisomycin]
C-D signal in the spontaneous Raman spectrum (2133 cm−1) ([5]; HeLa cells, deuterium-labeled all amino acids): absence of the C-D signal
C-D SRS imaging signal of newly synthesized proteins ([5]; compared with no inhibitor): drastically weaker signal
total proteome signal (2940 cm−1 image) ([5]; versus non-drug treated counterpart): remains at a similar level

SMILES: C#CCOC1C(O)C(O)OC(CO)C1O [alkyne-D-glucose]
glucose signal inside cells (uptake) ([6]; 32 mM, live HeLa cells, 10 min to 4 h): increasing over time
alkyne-D-glucose signal under competition with regular D-glucose ([6]; D-glucose 10 mM, 50 mM and 100 mM): decreases
alkyne-D-glucose signal under competition with L-glucose ([6]; L-glucose): retained

SMILES: CC(C)C[C@@H](C=O)NC(=O)[C@H](CC(C)C)NC(=O)[C@H](CC(C)C)NC(=O)OCc1ccccc1 [MG132] (Cbz-Leu-Leu-Leu-aldehyde)
cell type with proteome inclusions ([7]; 10 μM MG132, neuronal co-cultures, n=6): proteome inclusions appeared mostly in astrocytes instead of neurons
proteome turnover ([7]; 10 μM MG132 in the chase period, 10 h): retarded the proteome turnover
